According to PubChem BioAssay AID328 (DTP/NCI, 2004):
Where “and” joins values, the source holds several entries; their conditions need not be identical. Equal values may be shown once. Toxic doses and inconclusive results are not listed. Rule for the calls: active = survival T/C of 150% or more; inactive = T/C below 125% in these data.

System: BDF1 mice, P388 leukemia ip, median survival T/C
Test: NCI In Vivo Anticancer Drug Screen. Data for tumor model P388 Leukemia (intraperitoneal) in B6D2F1 (BDF1) mice
Settings: endpoint: median survival time, higher = longer survival
Outline: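 Survival ratio, drug arm over vehicle arm, in mice with a transplanted tumour.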

[1] = dose: 50.0 mg/kg/injection, schedule: Q04DX003 (ip), vehicle: saline with Tween-80
[2] = dose: 100.0 mg/kg/injection, schedule: Q01DX009 (ip), vehicle: Klucel (hydroxypropylcellulose) (HPC)
[3] = dose: 200.0 mg/kg/injection, schedule: Q01DX009 (ip), vehicle: Klucel (hydroxypropylcellulose) (HPC)

Measured: T/C

CC(=O)OC(CC(O)(C(F)(F)F)C(F)(F)F)C(C)(C)C (centres undefined)
inactive: dose: 12.5 mg/kg/injection, schedule: Q04DX003 (ip), vehicle: saline with Tween-80 90 % of control | dose: 25.0 mg/kg/injection, schedule: Q04DX003 (ip), vehicle: saline with Tween-80 90 % of control | [1] 90 % of control

CC1(C)SC(=S)N(c2ccc([N+](=O)[O-])cc2)C1=O
inactive: dose: 75.0 mg/kg/injection, schedule: Q01DX009 (ip), vehicle: saline with Tween-80 115 % of control | dose: 150.0 mg/kg/injection, schedule: Q01DX009 (ip), vehicle: saline with Tween-80 113 % of control | dose: 300.0 mg/kg/injection, schedule: Q01DX009 (ip), vehicle: saline with Tween-80 96 % of control

CC(O)(CCCCCCCC(C)(O)c1ccccc1)c1ccccc1 (centres undefined)
inactive: dose: 100.0 mg/kg/injection, schedule: Q01DX001 (ip), vehicle: saline with Tween-80 100 % of control | dose: 200.0 mg/kg/injection, schedule: Q01DX001 (ip), vehicle: saline with Tween-80 100 % of control | dose: 400.0 mg/kg/injection, schedule: Q01DX001 (ip), vehicle: saline with Tween-80 100 % of control

CN=S(=O)(OCCOCCOS(=O)(=NC)c1ccc(C)cc1)c1ccc(C)cc1 (centres undefined)
inactive: dose: 50.0 mg/kg/injection, schedule: Q01DX009 (ip), vehicle: saline with Tween-80 111 % of control | dose: 100.0 mg/kg/injection, schedule: Q01DX009 (ip), vehicle: saline with Tween-80 108 % of control | dose: 200.0 mg/kg/injection, schedule: Q01DX009 (ip), vehicle: saline with Tween-80 114 % of control

CN1C(=O)C(C)(C)C(=O)C1(C)C
inactive: dose: 12.5 mg/kg/injection, schedule: Q01DX001 (ip), vehicle: saline 100 % of control | dose: 25.0 mg/kg/injection, schedule: Q01DX001 (ip), vehicle: saline 100 % of control | dose: 50.0 mg/kg/injection, schedule: Q01DX001 (ip), vehicle: saline 100 % of control

O=C1CN(Cc2ccccc2)CC(=O)N2C(c3ccccc3)CCCN12 (centres undefined)
inactive: dose: 50.0 mg/kg/injection, schedule: Q01DX005 (ip), vehicle: saline with Tween-80 97 % of control | dose: 100.0 mg/kg/injection, schedule: Q01DX005 (ip), vehicle: saline with Tween-80 87 % of control | dose: 200.0 mg/kg/injection, schedule: Q01DX005 (ip), vehicle: saline with Tween-80 92 % of control

COc1ccc2c(c1)CCC1=C2C=C[P+]1(C)C
inactive: dose: 12.5 mg/kg/injection, schedule: Q01DX009 (ip), vehicle: saline with Tween-80 92 % of control | dose: 25.0 mg/kg/injection, schedule: Q01DX009 (ip), vehicle: saline with Tween-80 111 % of control

C1=CCC(C2OCC3(CO2)COC(C2CC=CCC2)OC3)CC1 (centres undefined)
inactive: [2] 96 % of control | [3] 88 % of control | dose: 400.0 mg/kg/injection, schedule: Q01DX009 (ip), vehicle: Klucel (hydroxypropylcellulose) (HPC) 88 % of control

C#CC(C)OCC1CO1 (centres undefined)
inactive: dose: 50.0 mg/kg/injection, schedule: Q01DX009 (ip), vehicle: saline 91 % of control | dose: 50.0 mg/kg/injection, schedule: Q04DX003 (ip), vehicle: saline 108 % of control | dose: 100.0 mg/kg/injection, schedule: Q01DX009 (ip), vehicle: saline 95 % of control | dose: 100.0 mg/kg/injection, schedule: Q04DX003 (ip), vehicle: saline 91 % of control | dose: 200.0 mg/kg/injection, schedule: Q04DX003 (ip), vehicle: saline 108 % of control

CCOC(=O)Nc1ccc2c(c1)/C(=N\NC(N)=S)c1ccccc1-2
inactive: dose: 0.37 mg/kg/injection, schedule: Q01DX009 (ip), vehicle: gum acacia 120 % of control | dose: 0.75 mg/kg/injection, schedule: Q01DX009 (ip), vehicle: gum acacia 108 % of control | dose: 1.5 mg/kg/injection, schedule: Q01DX009 (ip), vehicle: gum acacia 96 % of control and 108 % of control | dose: 3.0 mg/kg/injection, schedule: Q04DX003 (ip), vehicle: gum acacia 92 % of control | dose: 6.0 mg/kg/injection, schedule: Q04DX003 (ip), vehicle: gum acacia 100 % of control | dose: 50.0 mg/kg/injection, schedule: Q01DX009 (ip), vehicle: Klucel (hydroxypropylcellulose) (HPC) 86 % of control | [2] 90 % of control | dose: 100.0 mg/kg/injection, schedule: Q04DX003 (ip), vehicle: Klucel (hydroxypropylcellulose) (HPC) 86 % of control | dose: 200.0 mg/kg/injection, schedule: Q01DX001 (ip), vehicle: Klucel (hydroxypropylcellulose) (HPC) 86 % of control | [3] 100 % of control | dose: 200.0 mg/kg/injection, schedule: Q04DX003 (ip), vehicle: Klucel (hydroxypropylcellulose) (HPC) 100 % of control | dose: 400.0 mg/kg/injection, schedule: Q04DX003 (ip), vehicle: Klucel (hydroxypropylcellulose) (HPC) 109 % of control | dose: 400.0 mg/kg/injection, schedule: Q04DX003 (ip), vehicle: gum acacia 100 % of control

Cc1ccc(CNc2cc(C)ccn2)cc1
inactive: [1] 105 % of control | dose: 100.0 mg/kg/injection, schedule: Q04DX003 (ip), vehicle: saline with Tween-80 110 % of control | dose: 200.0 mg/kg/injection, schedule: Q04DX003 (ip), vehicle: saline with Tween-80 110 % of control
